Data: patent publication US11066630B2, “Device and method for analysis of tissue constructs” (The Johns Hopkins University, priority 2015, dated 2021)

How the values were obtained:
[1] = tested on: primary ASM cells from asthmatic and non-asthmatic donors; experiment: HASM stiffness measurements: drug-induced single-cell contraction or relaxation, asthmatic vs non-asthmatic ASM cells; format: cell-based, human
Experimental: (§1) Primary human epithelial and smooth muscle cells were harvested from the proximal airways (first through third order bronchi) of donor lungs unsuitable for transplantation (Table I) in accordance with the Institutional Review Boards at the University of Pennsylvania. Primary normal human bronchial epithelial (NHBE) cells were grown in collagen-coated flasks (GIBCO) using serum-free BEGM Bronchial Epithelial Cell Growth Medium™ with BulletKit™ Supplements (Lonza) and subsequently trypsinized and seeded onto porous polycarbonate membranes (either inside microfluidic devices or on transwell inserts) at 100,000 cells/cm^2. The polycarbonate membranes were coated with collagen type I (30 μg/ml; GIBCO) at 37° C. for 18 h before cell seeding. After NHBE cells reached confluence (within 3-5 days), the apical medium was removed and the basal medium was replaced with differentiation medium (PneumaCult-ALI™ Medium and Supplements, StemCell Technologies). The NHBE cells were maintained at the ALI for 2-3 weeks, until they differentiated into a pseudostratified layer. Excess mucus on the air side was washed away with warm PBS weekly. After NHBE differentiation in the microfluidic chips, primary HASM cells were seeded into the bottom compartment. Approximately 18 h before the live-cell micromechanical experiments using MTC, the culture medium of HASM cells was changed to serum-free minimal media (1:1 vol/vol mixture of DMEM Dulbecco's modified Eagle's medium and Ham's F-12 medium, supplemented with insulin […]), and cells were maintained at 37° C. in humidified air containing 5% CO2. The overnight media was then washed and replaced with fresh minimal media before the experiments. This minimal media procedure was applied to NHBE cells as well before compressive-stress application. For experiments involving Celecoxib or Verteporfin (Sigma Aldrich), NHBE cells were pre-treated with the drugs before the second washing step, as the presence of Celecoxib in the infranatant affected HASM mechanics (FIGS. 19A-B), and Verteporfin in the infranatant would have phototoxic effects on HASM cells during the live-cell micromechanical measurements. Since Verteporfin is a photosensitizer, treatment of NHBE cells was always performed in the dark.
Magnetic twisting cytometry with optical detection was used to quantitatively assess dynamic changes in cell stiffness as an indicator of single-cell contraction or relaxation of HASM cells, as previously described. In brief, ferrimagnetic microbeads (4.5 μm in diameter) coated with synthetic Arg-Gly-Asp (RGD) containing peptide (American Peptide Company) bound to the cytoskeleton through cell surface integrin receptors were magnetized horizontally. […] Lateral bead displacements in response to the resulting oscillatory torque were detected optically (in spatial resolution of ˜5 nm), and the ratio of specific torque to bead displacement was computed as the cell stiffness in units of Pascals (Pa) per nanometer. For drug-induced single-cell contraction or relaxation, changes in HASM stiffness were measured in real-time for the duration of 300 seconds. For each individual cell, the baseline stiffness was measured for the first 60 seconds, and after drug addition, the stiffness was measured continuously for the next 240 seconds.

[2] = tested on: ASM cells in lung-chip co-culture with airway epithelial cells; experiment: Lung-chip: ASM contraction after compressive stress on the epithelial layer (OMTC); format: cell-based, human; conditions: after 30 cmH2O compressive stress; 10 μM methacholine, followed by 1 μM PGE2
Experimental: The upper and lower layer of the microfluidic device were fabricated using standard soft lithography techniques by casting a flexible and optically transparent polydimethylsiloxane (PDMS) polymer on a mold and cross-linking at 80° C. for 2 hours. The mold was fabricated using optical lithography with an epoxy-based negative photoresist (SU8) that yields thick and robust structures. The two PDMS layers each had compartments with 5 mm width, 20 mm length, and 300 μm height, and around 100 support pillars with 200 μm diameter distributed across the compartments. The two compartments were separated by an optically-clear polycarbonate membrane (Sterlitech) with 5 μm diameter holes, allowing cells on both sides of the membranes to chemically interact. To construct the complete chip, first a PDMS layer and the polycarbonate membrane were exposed to an oxygen plasma (30 W, 700 mTorr, 30 sec) to chemically activate their surfaces. Immediately after the plasma treatment, the PDMS surface was silanized using 5 μl of an APTES solution (1% 3-aminopropyltriethoxysilane in water) and the polycarbonate membrane was allowed to bond to it. After 2 hours of bonding at room temperature, the process was repeated to bond the second PDMS compartment to the other side of the polycarbonate membrane. […]

[3] = tested on: ASM cells in lung-chip; experiment: Cell rheology measurements using the lung-chip platform (frequency-domain OMTC); format: cell-based, human; conditions: frequency-domain OMTC on lung-chip
Source text: Magnetic twisting cytometry with optical detection was used to quantitatively assess dynamic changes in cell stiffness as an indicator of single-cell contraction or relaxation of HASM cells, as previously described. In brief, ferrimagnetic microbeads (4.5 μm in diameter) coated with synthetic Arg-Gly-Asp (RGD) containing peptide (American Peptide Company) bound to the cytoskeleton through cell surface integrin receptors were magnetized horizontally. Subsequently, a vertically aligned homogeneous magnetic field varying sinusoidally in time applied an oscillatory torque, leading to both a rotation and a pivoting displacement of the bead (FIG. 18B). Measurements were performed at a single frequency of 0.75 Hz or oscillatory frequencies between 10^−1 and 10^3 Hz for cell rheology measurements (FIG. 21). Lateral bead displacements in response to the resulting oscillatory torque were detected optically (in spatial resolution of ˜5 nm), and the ratio of specific torque to bead displacement was computed as the cell stiffness in units of Pascals (Pa) per nanometer. For drug-induced single-cell contraction or relaxation, changes in HASM stiffness were measured in real-time for the duration of 300 seconds. For each individual cell, the baseline stiffness was measured for the first 60 seconds, and after drug addition, the stiffness was measured continuously for the next 240 seconds.

[4] = tested on: airway epithelial cells; experiment: Gene expression analysis (TaqMan real-time PCR) in airway epithelial cells; format: cell-based, human
Experimental: as §1, with “For experiments involving Celecoxib or Verteporfin (Sigma Aldrich), NHBE cells were pre-treated with the drugs before the second washing step, as the presence of Celecoxib in the infranatant affected HASM mechanics (FIGS. 19A-B), and Verteporfin in the infranatant would have phototoxic effects on HASM cells during the live-cell micromechanical measurements. Since Verteporfin is a photosensitizer, treatment of NHBE cells was always performed in the dark.” left out

[5] = tested on: primary human airway epithelial cells (NHBE); readout on HASM cells; experiment: ASM cell contraction (OMTC stiffness) in response to infranatant from drug-treated epithelial cells exposed to compressive stress; format: cell-based; conditions: epithelial cells treated with drug; 30 cmH2O, 0h vs 3h pressure
Experimental: (§2) Primary human epithelial and smooth muscle cells were harvested from the proximal airways (first through third order bronchi) of donor lungs unsuitable for transplantation (Table I) in accordance with the Institutional Review Boards at the University of Pennsylvania. Primary normal human bronchial epithelial (NHBE) cells were grown in collagen-coated flasks (GIBCO) using serum-free BEGM Bronchial Epithelial Cell Growth Medium™ with BulletKit™ Supplements (Lonza) and subsequently trypsinized and seeded onto porous polycarbonate membranes (either inside microfluidic devices or on transwell inserts) at 100,000 cells/cm^2. The polycarbonate membranes were coated with collagen type I (30 μg/ml; GIBCO) at 37° C. for 18 h before cell seeding. After NHBE cells reached confluence (within 3-5 days), the apical medium was removed and the basal medium was replaced with differentiation medium (PneumaCult-ALI™ Medium and Supplements, StemCell Technologies). The NHBE cells were maintained at the ALI for 2-3 weeks, until they differentiated into a pseudostratified layer. Excess mucus on the air side was washed away with warm PBS weekly. […]
Magnetic twisting cytometry with optical detection was used to quantitatively assess dynamic changes in cell stiffness as an indicator of single-cell contraction or relaxation of HASM cells, as previously described. […]

[6] = tested on: NHBE cells; experiment: PGE2 content of epithelial infranatant (EIA kit); format: cell-based, human; conditions: epithelial cells with or without compressive stress
Experimental: as §2, with “seeding.” for “seeding. After NHBE cells reached confluence (within 3-5 days), the apical medium was removed and the basal medium was replaced with differentiation medium (PneumaCult-ALI™ Medium and Supplements, StemCell Technologies). The NHBE cells were maintained at the ALI for 2-3 weeks, until they differentiated into a pseudostratified layer. Excess mucus on the air side was washed away with warm PBS weekly.”
Media from the basal compartments (infranatant) were collected from control samples or after application of 30 cmH2O compressive stress on NHBE cells, and were assayed for the presence of PGE2 using a commercial EIA kit (DetectX™ Prostaglandin E2 High Sensitivity Immunoassay Kit, Arbor Assays, Ann Arbor, Mich.) following the manufacturer's instructions. The absorbance in the samples was measured at 450 nm with a microplate reader (Molecular Devices, Sunnyvale, Calif.). […]

CCCCC[C@H](O)/C=C/[C@@H]1[C@@H](C/C=C\CCCC(=O)O)[C@@H](O)C[C@H]1O [PGF2α]
Stiffness change (contraction or relaxation), asthmatic compared with non-asthmatic ASM cells [1]: did not yield a difference in response between asthmatic and non-asthmatic ASM cells

CCCCC[C@H](O)/C=C/[C@H]1[C@H](O)CC(=O)[C@@H]1C/C=C\CCCC(=O)O [PGE2]
ASM contraction in lung-chip after pressure turned off [2]: did not lead to relaxation
Stiffness change (contraction or relaxation), asthmatic compared with non-asthmatic ASM cells [1]: asthmatic ASM cells relaxed more
ASM response to agonist ([1]; different doses and different patient samples): consistently caused ASM relaxation

C=C1[C@@H](C)[C@H]2[C@H](Cc3ccccc3)NC(=O)[C@]23[C@H](OC(C)=O)/C=C/[C@@](C)(O)C(=O)[C@@H](C)C/C=C/[C@H]3[C@@H]1O [cytochalasin D]
ASM cell stiffness [3]: reduces ASM cell stiffness
Stress relaxation of ASM cells [3]: easier (faster) for the cells to relax stress

CC(C)NCC(O)c1ccc(O)c(O)c1 (stereo not shown) [isoproterenol]
Stiffness change (contraction or relaxation), asthmatic compared with non-asthmatic ASM cells [1]: less relaxation in asthmatic ASM cells

NCCc1c[nH]cn1 [Histamine, histamine]
ASM cell stiffness [3]: increases ASM cell stiffness
Stress relaxation of ASM cells [3]: more difficult (slower) for the cells to relax stress

CC(=O)OC(C)C[N+](C)(C)C (stereo not shown) [methacholine]
ASM contraction in lung-chip after pressure turned off [2]: only slightly increased ASM contraction
Stiffness change (contraction or relaxation), asthmatic compared with non-asthmatic ASM cells [1]: stronger contraction in asthmatic ASM cells

Verteporfin
COX2 (PTGS2) mRNA expression ([4]; airway epithelial cells): downregulated COX2
Regulation of COX1 and COX2 mRNA by compressive stress ([4]; airway epithelial cells, compressive stress): prohibited the downregulation of COX1 and upregulation of COX2 by compressive stress
Upregulation of CTGF mRNA by compressive stress ([4]; epithelial cells): this upregulation was abrogated
Effect of compressive stress on epithelial cells, read as ASM cell contraction in response to 0h and 3h-pressure epithelial samples [5]: abrogated the effects of compressive stress
PGE2 content of the infranatants [6]: less PGE2 production and suppression of the effects of compressive stress
